For one assay, the target named is T1, human factor XIa (Homo sapiens, UniProt P03951).
T1 construct: purchased Kordia
In words: Measurement of FXIa inhibition (fluorogenic peptide substrate Boc-Glu(OBzl)-Ala-Arg-AMC). Type of assay: biochemical. The conditions noted are these: factor XIa from Kordia, 15 min preincubation, 30 min at 22° C., fluorescence. The gist of the method: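 Released AMC fluorescence (360/460 nm) read after 30 min at 22 °C. The reaction was started with Boc-Glu(OBzl)-Ala-Arg-AMC (10 μM stock) after a 15 min preincubation of the enzyme (0.45 nM stock) with compound (final 50 μM to 0.00013 μM).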

Another assay deals with human and animal plasma. In words: Determination of anticoagulatory activity: activated partial thromboplastin time (aPTT) in plasma. The conditions noted are these: concentration of test substance which brings about a 1.5-fold extension of the aPTT; plasma species not given. The gist of the method: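 Citrated plasma (1:9, 0.11 M citrate; 4000 g, 15 min) from human or animal blood incubated with test compound and cephalin/kaolin PTT reagent for 3 min at 37° C.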

Molecules are shown by their SMILES. Where a name gives a salt, the structure may show the parent alone.

T1 sequence (P03951 388-625 limits assumed): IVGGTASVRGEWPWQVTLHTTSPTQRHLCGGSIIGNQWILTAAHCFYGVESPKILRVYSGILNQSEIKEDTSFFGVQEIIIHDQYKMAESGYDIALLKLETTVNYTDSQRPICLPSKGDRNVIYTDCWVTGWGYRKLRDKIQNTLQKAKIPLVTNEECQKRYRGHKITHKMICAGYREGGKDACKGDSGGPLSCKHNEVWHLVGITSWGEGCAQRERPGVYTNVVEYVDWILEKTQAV
T1 sequence (P03951 19-387 partner limits assumed): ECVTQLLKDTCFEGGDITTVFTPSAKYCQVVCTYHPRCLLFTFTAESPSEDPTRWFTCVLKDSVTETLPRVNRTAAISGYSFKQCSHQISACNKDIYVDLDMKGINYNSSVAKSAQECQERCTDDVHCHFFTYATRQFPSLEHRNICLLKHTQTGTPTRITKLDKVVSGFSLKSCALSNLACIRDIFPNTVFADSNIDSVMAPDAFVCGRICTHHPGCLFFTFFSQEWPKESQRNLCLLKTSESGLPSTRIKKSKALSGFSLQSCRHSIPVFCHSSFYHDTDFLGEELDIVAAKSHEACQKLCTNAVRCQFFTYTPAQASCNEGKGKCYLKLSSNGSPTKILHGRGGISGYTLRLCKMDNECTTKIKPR

On to `COCc1nnc(-c2ccc(NC(=O)[C@H](Cc3ccc(-c4ccc(C(=O)NC5CCNCC5)cc4C)cc3)NC(=O)[C@H]3CC[C@H](CN)CC3)cc2)[nH]1` [Example 54, 4′-[(2S)-2-({[trans-4-(Aminomethyl)cyclohexyl]carbonyl}amino)-3-({4-[3-(methoxymethyl)-4H-1,2,4-triazol-5-yl]phenyl}amino)-3-oxopropyl]-2-methyl-N-(piperidin-4-yl)biphenyl-4-carboxamide hydrochloride], for which, at human factor XIa, the IC50 (in general, the concentration that inhibits the measured activity by half) is 16 nM. In addition, the “aPTT” value with human and animal plasma is 0.24 µmol/L.
The matching figures for `Cc1cc(C(=O)NCCCN(C)C)ccc1-c1ccc(C[C@H](NC(=O)[C@H]2CC[C@H](CN)CC2)C(=O)Nc2ccc3[nH]c(C(F)(F)C(F)(F)F)nc3c2)cc1` [Example 81, 4′-[(2S)-2-({[trans-4-(Aminomethyl)cyclohexyl]carbonyl}amino)-3-oxo-3-{[2-(pentafluoroethyl)-1H-benzimidazol-5-yl]amino}propyl]-N-[3-(dimethylamino)propyl]-2-methylbiphenyl-4-carboxamide hydrochloride]: 22 nM and 0.41 µmol/L.
For `Cc1cc(C(=O)N[C@H]2CC[C@H](O)CC2)ccc1-c1ccc(C[C@H](NC(=O)[C@H]2CC[C@H](CN)CC2)C(=O)Nc2ccc(-c3nc(C(F)(F)C(F)(F)CO)n[nH]3)cc2)cc1` [Example 110, 4′-[(2S)-2-({[trans-4-(Aminomethyl)cyclohexyl]carbonyl}amino)-3-oxo-3-({4-[3-(1,1,2,2-tetrafluoro-3-hydroxypropyl)-1H-1,2,4-triazol-5-yl]phenyl}amino)propyl]-N-(trans-4-hydroxycyclohexyl)-2-methylbiphenyl-4-carboxamide hydrochloride] the same measures were 1.8 nM and 0.11 µmol/L.
For `Cc1cc(C(=O)NC2CCNCC2)ccc1-c1ccc(C[C@H](NC(=O)[C@H]2CC[C@H](CN)CC2)C(=O)Nc2ccc3nc(-c4cccnc4)[nH]c3c2)cc1` [Example 59, 4′-[(2S)-2-({[trans-4-(Aminomethyl)cyclohexyl]carbonyl}amino)-3-oxo-3-{[2-(pyridin-3-yl)-1H-benzimidazol-6-yl]amino}propyl]-2-methyl-N-(piperidin-4-yl)biphenyl-4-carboxamide hydrochloride] the same measures were 34 nM and 0.51 µmol/L.
`Cc1cc(C(=O)NC2CCC3NCCC32)ccc1-c1ccc(C[C@H](NC(=O)[C@H]2CC[C@H](CN)CC2)C(=O)Nc2ccc(-c3nnc(C(F)(F)C(F)(F)C(=O)O)[nH]3)cc2)cc1` (stereo partly drawn) [Example 115, 3-{5-[4-({(2S)-2-({[trans-4-(Aminomethyl)cyclohexyl]carbonyl}amino)-3-[2′-methyl-4′-(octahydrocyclopenta[b]pyrrol-4-ylcarbamoyl)biphenyl-4-yl]propanoyl}amino)phenyl]-4H-1,2,4-triazol-3-yl}-2,2,3,3-tetrafluoropropanoic acid hydrochloride]: on human factor XIa, the IC50 amounted to 2.3 nM. For the same compound, the “aPTT” value in the assay on human and animal plasma was 0.09 µmol/L.
The matching figures for `COCCOCCOCCOCCNC(=O)c1ccc(-c2ccc(C[C@H](NC(=O)[C@H]3CC[C@H](CN)CC3)C(=O)Nc3ccc(-c4nn[nH]n4)cc3)cc2)c(C)c1` [Example 27, 4′-[(2S)-2-({[trans-4-(Aminomethyl)cyclohexyl]carbonyl}amino)-3-oxo-3-{[4-(2H-tetrazol-5-yl)phenyl]amino}propyl]-2-methyl-N-(2,5,8,11-tetraoxatridecan-13-yl)biphenyl-4-carboxamide hydrochloride]: 2.8 nM and 0.24 µmol/L.
Turning to `Cc1c(C(=O)NC2CCNCC2)ccc(-c2ccc(C[C@H](NC(=O)[C@H]3CC[C@H](CN)CC3)C(=O)Nc3ccc(-c4nn[nH]n4)cc3)cc2)c1Cl` [Example 124, 4′-[(2S)-2-({[trans-4-(Aminomethyl)cyclohexyl]carbonyl}amino)-3-oxo-3-{[4-(2H-tetrazol-5-yl)phenyl]amino}propyl]-2-chloro-3-methyl-N-(piperidin-4-yl)biphenyl-4-carboxamide hydrochloride], the IC50 against human factor XIa was 1.8 nM. Also, the “aPTT” value in the assay on human and animal plasma is 0.1 µmol/L.

Values taken from patent US20160272617A1, “SUBSTITUTED PHENYLALANINE DERIVATIVES” (BAYER PHARMA AKTIENGESELLSCHAFT, priority 2013, published 2016).
